Data taken from patent US11629201B2, “PSMA-binding agents and uses thereof” (ITM Isotope Technologies Munich SE, priority 2017, dated 2023).

Tested on: PC-3 PIP/flu tumor-bearing mice
Assay: Biodistribution studies in PC-3 PIP/flu tumor-bearing mice
Settings: for Tumor-to-blood / Tumor-to-kidney / Tumor-to-liver: PC-3 PIP tumor

## Cc1ccc(CCCC(=O)NCCCCC(NC(=O)CN2CCN(CC(=O)O)CCN(CC(=O)O)CCN(CC(=O)O)CC2)C(=O)NCC2CCC(C(=O)NC(Cc3ccc4ccccc4c3)C(=O)NCCCCC(NC(=O)NC(CCC(=O)O)C(=O)O)C(=O)O)CC2)cc1 (stereo not drawn) [44Sc-PSMA-ALB-06, metal not drawn]
1 h p.i.
  Tumor-to-blood: 0.94 ± 0.11
  Tumor-to-kidney: 0.77 ± 0.12
  Tumor-to-liver: 4.28 ± 0.52
4 h p.i.
  Blood: 18.4 ± 1.00 % IA/g
  Bone: 2.50 ± 0.35 % IA/g
  Heart: 6.48 ± 0.50 % IA/g
  Intestines: 2.50 ± 0.13 % IA/g
  Kidneys: 28.8 ± 2.46 % IA/g
  Muscle: 2.24 ± 0.10 % IA/g
  PC-3 PIP Tumor: 61.7 ± 7.32 % IA/g
  PC-3 flu Tumor: 4.37 ± 0.43 % IA/g
  Salivary glands: 4.55 ± 0.41 % IA/g
  Spleen: 4.10 ± 0.54 % IA/g
  Tumor-to-blood: 3.35 ± 0.20
  Tumor-to-kidney: 2.14 ± 0.15
  Tumor-to-liver: 17.93 ± 3.32
6 h p.i.
  Blood: 15.6 ± 0.75 % IA/g
  Bone: 2.54 ± 0.27 % IA/g
  Intestines: 2.07 ± 0.34 % IA/g
  Kidneys: 21.7 ± 0.42 % IA/g
  Liver: 3.67 ± 0.68 % IA/g
  Lung: 9.44 ± 0.86 % IA/g
  PC-3 PIP Tumor: 72.9 ± 11.1 % IA/g
  PC-3 flu Tumor: 3.87 ± 0.45 % IA/g
  Salivary gland: 4.03 ± 0.22 % IA/g
  Spleen: 3.67 ± 0.37 % IA/g
  Tumor-to-blood: 4.69 ± 0.67
  Tumor-to-kidney: 3.35 ± 0.42
  Tumor-to-liver: 20.2 ± 3.43

## O=C(O)CCC(NC(=O)NC(CCCCNC(=O)C(Cc1ccc2ccccc2c1)NC(=O)C1CCC(n2cc(CC(NC(=O)CN3CCN(CC(=O)O)CCN(CC(=O)O)CCN(CC(=O)O)CC3)C(=O)NC(CCCCNC(=O)CCCc3ccc(I)cc3)C(=O)O)nn2)CC1)C(=O)O)C(=O)O (stereo not drawn) [^177Lu-PSMA-ALB-01, metal not drawn]
1 h p.i.
  Tumor-to-blood: 0.30 ± 0.06
  Tumor-to-kidney: 0.46 ± 0.04
  Tumor-to-liver: 1.56 ± 0.30
4 h p.i.
  Blood: 25.6 ± 1.53 % IA/g
  Bone: 3.01 ± 0.09 % IA/g
  Heart: 8.71 ± 0.50 % IA/g
  Intestines: 4.17 ± 0.70 % IA/g
  Kidneys: 24.6 ± 0.38 % IA/g
  Liver: 5.92 ± 0.07 % IA/g
  Lung: 14.1 ± 0.99 % IA/g
  Muscle: 2.06 ± 0.80 % IA/g
  PC-3 PIP Tumor: 20.4 ± 0.39 % IA/g
  PC-3 flu Tumor: 5.03 ± 1.61 % IA/g
  Salivary glands: 5.20 ± 0.73 % IA/g
  Spleen: 5.34 ± 0.90 % IA/g
  Stomach: 3.30 ± 0.05 % IA/g
  Tumor-to-blood: 0.80 ± 0.03
  Tumor-to-kidney: 0.83 ± 0.03
  Tumor-to-liver: 3.45 ± 0.03
8 h p.i.
  Blood: 21.0 ± 2.86 % IA/g
  Bone: 2.54 ± 0.26 % IA/g
  Heart: 7.16 ± 1.23 % IA/g
  Intestines: 2.44 ± 0.17 % IA/g
  Kidneys: 22.6 ± 2.38 % IA/g
  Liver: 5.31 ± 1.23 % IA/g
  Lung: 11.6 ± 0.83 % IA/g
  Muscle: 1.63 ± 0.27 % IA/g
  PC-3 PIP Tumor: 25.5 ± 2.02 % IA/g
  PC-3 flu Tumor: 4.01 ± 0.79 % IA/g
  Salivary glands: 4.45 ± 0.56 % IA/g
  Spleen: 4.05 ± 0.69 % IA/g
  Stomach: 2.45 ± 0.43 % IA/g
  Tumor-to-blood: 1.22 ± 0.08
  Tumor-to-kidney: 1.13 ± 0.07
  Tumor-to-liver: 4.97 ± 1.21
24 h p.i.
  Blood: 14.2 ± 1.40 % IA/g
  Bone: 1.58 ± 0.06 % IA/g
  Heart: 5.93 ± 0.65 % IA/g
  Intestines: 2.12 ± 0.20 % IA/g
  Kidneys: 22.7 ± 2.18 % IA/g
  Liver: 2.92 ± 0.67 % IA/g
  Lung: 8.62 ± 1.47 % IA/g
  Muscle: 1.34 ± 0.14 % IA/g
  PC-3 PIP Tumor: 38.2 ± 2.59 % IA/g
  PC-3 flu Tumor: 3.95 ± 0.82 % IA/g
  Salivary glands: 3.38 ± 0.32 % IA/g
  Spleen: 3.60 ± 0.43 % IA/g
  Stomach: 1.39 ± 0.07 % IA/g
  Tumor-to-blood: 2.71 ± 0.39
  Tumor-to-kidney: 1.69 ± 0.07
  Tumor-to-liver: 13.5 ± 2.79
48 h p.i.
  Blood: 12.0 ± 2.18 % IA/g
  Bone: 1.64 ± 0.34 % IA/g
  Heart: 4.42 ± 0.81 % IA/g
  Intestines: 1.84 ± 0.54 % IA/g
  Kidneys: 25.2 ± 4.15 % IA/g
  Liver: 3.03 ± 0.63 % IA/g
  Lung: 7.67 ± 0.83 % IA/g
  Muscle: 1.35 ± 0.46 % IA/g
  PC-3 PIP Tumor: 65.6 ± 1.84 % IA/g
  PC-3 flu Tumor: 4.64 ± 1.84 % IA/g
  Salivary glands: 3.96 ± 0.98 % IA/g
  Spleen: 4.62 ± 1.12 % IA/g
  Stomach: 1.49 ± 0.47 % IA/g
  Tumor-to-blood: 5.54 ± 0.76
  Tumor-to-kidney: 2.64 ± 0.40
  Tumor-to-liver: 22.2 ± 4.11
96 h p.i.
  Blood: 6.68 ± 0.85 % IA/g
  Bone: 1.07 ± 0.22 % IA/g
  Heart: 2.70 ± 0.37 % IA/g
  Intestines: 1.05 ± 0.17 % IA/g
  Kidneys: 13.0 ± 1.30 % IA/g
  Liver: 1.88 ± 0.36 % IA/g
  Lung: 5.07 ± 0.66 % IA/g
  Muscle: 0.82 ± 0.12 % IA/g
  PC-3 PIP Tumor: 62.3 ± 3.56 % IA/g
  PC-3 flu Tumor: 2.76 ± 0.23 % IA/g
  Salivary glands: 2.22 ± 0.38 % IA/g
  Spleen: 3.12 ± .015 % IA/g
  Stomach: 0.81 ± 0.04 % IA/g
  Tumor-to-blood: 9.39 ± 0.65
  Tumor-to-kidney: 4.80 ± 0.20
  Tumor-to-liver: 33.7 ± 4.33
144 h p.i.
  Blood: 5.78 ± 0.90 % IA/g
  Bone: 0.99 ± 0.20 % IA/g
  Heart: 2.23 ± 0.29 % IA/g
  Intestines: 1.07 ± 0.13 % IA/g
  Kidneys: 10.2 ± 3.41 % IA/g
  Liver: 1.56 ± 0.16 % IA/g
  Lung: 4.90 ± 0.58 % IA/g
  Muscle: 0.66 ± 0.15 % IA/g
  PC-3 PIP Tumor: 78.4 ± 8.57 % IA/g
  PC-3 flu Tumor: 2.82 ± 0.24 % IA/g
  Salivary glands: 1.68 ± 0.53 % IA/g
  Spleen: 4.32 ± 0.57 % IA/g
  Stomach: 0.84 ± 0.13 % IA/g
  Tumor-to-blood: 13.8 ± 2.38
  Tumor-to-kidney: 8.05 ± 1.77
  Tumor-to-liver: 50.5 ± 6.28
192 h p.i.
  Blood: 5.21 ± 1.37 % IA/g
  Bone: 0.86 ± 0.17 % IA/g
  Heart: 2.12 ± 0.68 % IA/g
  Intestines: 1.02 ± 0.25 % IA/g
  Kidneys: 7.56 ± 1.44 % IA/g
  Liver: 1.51 ± 0.37 % IA/g
  Lung: 4.12 ± 0.96 % IA/g
  Muscle: 0.64 ± 0.13 % IA/g
  PC-3 PIP Tumor: 75.6 ± 22.0 % IA/g
  PC-3 flu Tumor: 2.73 ± 0.84 % IA/g
  Salivary glands: 1.78 ± 0.34 % IA/g
  Spleen: 4.09 ± 1.12 % IA/g
  Stomach: 0.73 ± 0.12 % IA/g
  Tumor-to-blood: 14.5 ± 1.84
  Tumor-to-kidney: 9.87 ± 1.05
  Tumor-to-liver: 50.2 ± 7.38
